Experiments:
male mice of ddY line = assay type: in vivo; conditions: 50 mg/kg, i.p., 60 minutes before KCN (3.0 mg/kg) tail intravenous injection; for Survival Time ±S.E.: time to respiratory arrest
male rats of SD line = experiment: High cholesterol feed: blood viscosity, serum total cholesterol, triglyceride, GOT; assay type: in vivo; conditions: 100 mg/kg/day, p.o., 4 days
Description: In this experiment, 5-week-old male rats of SD line (5 individuals per one group) were used after rearing them for 1 week using normal feed, and each compound of the present invention (100 mg/kg) was administered orally once a day for 4 days. Simultaneously with the commencement of the administration, the normal feed was replaced by a high cholesterol feed. After completion of the administration, they were subjected to fasting treatment for 24 hours. Thereafter, each rat was subjected to ventrotomy under anesthesia with Nembutal® (Dainabot Co., Ltd.; 50 mg/kg, i.p.) to collect blood from abdominal aorta, and the collected blood sample was checked for its blood viscosity using a viscometer (Biolyzer, Tokyo Keiki Co., Ltd.). At the same time, total cholesterol (Wako Pure Chemical Industries, Ltd.; Cholesterol E-test wako), triglyceride (Wako Pure Chemical Industries, Ltd.; Triglyceride G-test wako) and GOT (Wako Pure Chemical Industries, Ltd.; GOT-UV test-wako) in serum samples were measured.

male SD rats = experiment: Thrombus formation in abdominal vena cava; assay type: in vivo; conditions: 30 mg/kg, p.o.; dry weight of thrombus
Description: Each of male SD rats of 130 to 210 g in body weight was anesthetized with Nembutal® (50 mg/kg, i.p.) and subjected to median incision ventrotomy to release about a 2 cm portion of abdominal vena cava below the renal vein. Blood flow of the thus released vena cava was temporarily stopped for 5 minutes with 8 hemostatic clips. After recirculating blood for 5 minutes by removing the hemostatic clips, […] was ligated at a position just below the renal vein and the median-incised part was sutured. Two hours after the ligature, the thus treated rat was again subjected to ventrotomy to excise abdominal vena cava. The thus excised blood vessel was cut open on a filter paper which had been moistened with physiological saline, in order to take out thrombus. The thrombus thus obtained was washed with physiological saline to remove adhered blood and the like substances and then dried at 80°C for 12 hours or longer to measure its dry weight. In this instance, each drug to be tested was orally administered 90 minutes before the clipping to examine its effect by single administration on the formation of thrombus. Separately from this, each test drug was administered to 6-week-old male SD rat continuously for 7 days, thrombus was prepared in the eighth day in the same manner as described above and dry weight of the thrombus was measured, in order to examine effect of the continuous 7 day administration on the thrombus formation.

[1] = Blood plasma clotting time after oral administration; assay type: in vivo, male rats of Wistar line; conditions: 30 mg/kg, p.o.; blood collected 90 minutes after administration; calcium chloride, 37°C
Description: In this experiment, 9-week-old male rats of Wistar line (5 to 6 individuals per one group) were used after rearing them for 1 week with normal feed. After 24 hours of fasting, each test drug was administered orally and, 90 minutes thereafter, blood sample was collected from lower abdominal vena cava of each rat under anesthesia with Nembutal® (1 ml/kg, i.p.). Blood samples obtained in this way were checked for their blood clotting time and erythrocyte deformability.
Measuring procedures are as follows.
Blood clotting time ... Collected blood sample is centrifuged at 3,500 rpm for 10 minutes to obtain blood plasma. The blood plasma is pre-incubated for 1 minute in a water bath controlled at 37°C, mixed with calcium chloride and then shaken at 20 second intervals to measure a time required for its clotting.

Qualitative solubility = assay type: physicochemical

Structure (SMILES)	Lethality (%) (male mice of ddY line)	Survival Time ±S.E. (male mice of ddY line) [s]	GOT ±S.E. (male rats of SD line) [IU/ℓ]	Total Cholesterol ±S.E. (male rats of SD line) [mg/dL]	Triglyceride ±S.E. (male rats of SD line) [mg/dL]	Antithrombotic Effect: Thrombus weight ±S.E. (male SD rats) [mg]	Plasma Clotting Time ± S.E. [1] [s]	solubility in H₂O (Qualitative solubility)
CC(CCC1OCC1CO)C1CCC2C3C(O)CC4CC(O)CCC4(C)C3CC(O)C12C [Example 3, (24R)-(25S)-(+)-24,26-epoxy-5β-cholestane-3α,7α,12α,27-tetrol]	80	107.3 ± 8.6	140 ± 10	445 ± 65	90 ± 39	13.5 ± 1.22	195 ± 1.9	
C[C@H](CC[C@H]1OC[C@H]1CO)[C@H]1CC[C@H]2[C@@H]3[C@H](O)C[C@@H]4C[C@H](O)CC[C@]4(C)[C@H]3C[C@H](O)[C@]12C [Example 4, (24R)-(25R)-(+)-24,26-epoxy-5β-cholestane-3α,7α,12α,27-tetrol]	80	98.1 ± 13.1	138 ± 9	428 ± 49	92 ± 45	11.2 ± 3.81		insol in H₂O
C[C@H](CCCC(CO)CO)[C@H]1CC[C@H]2[C@@H]3[C@H](O)C[C@@H]4C[C@H](O)CC[C@]4(C)[C@H]3C[C@H](O)[C@]12C [Example 6, 3α,7α,12α,26,27-pentahydroxy-5β-cholestane]	80	98.7 ± 8.81	143 ± 8	391 ± 70	99 ± 41	13.5 ± 2.11		
C[C@H](CCCC(CO)CO)[C@H]1CC[C@H]2[C@@H]3[C@H](O)C[C@H]4C[C@H](O)CC[C@]4(C)[C@H]3C[C@H](O)[C@]12C [Example 7, 3α,7α,12α,26,27-pentahydroxy-5α-cholestane]	80	89 ± 9.99	138 ± 18	385 ± 58	92 ± 31	12.2 ± 1.33		
C[C@H](CC[C@H](O)C(CO)CO)[C@H]1CC[C@H]2[C@@H]3[C@H](O)C[C@@H]4C[C@H](O)CC[C@]4(C)[C@H]3C[C@H](O)[C@]12C [Example 8, (24S)-3α,7α,12α,24,26,27-hexahydroxy-5β-cholestane]	70	123.0 ± 7.19	140 ± 13	410 ± 40	87 ± 15	10.5 ± 1.43		
C[C@H](CC[C@H](O)[C@@H](C)CO)[C@H]1CC[C@H]2[C@@H]3[C@H](O)C[C@@H]4C[C@H](O)CC[C@]4(C)[C@H]3C[C@H](O)[C@]12C [Example 9, (24S)-(25S)-3α,7α,12α,24,26-pentahydroxy-5β-cholestane]	80	101.2 ± 10.1	138 ± 8	441 ± 51	89 ± 41	12.5 ± 2.44		
C[C@H](CC[C@H](O)[C@H](C)CO)[C@H]1CC[C@H]2[C@@H]3[C@H](O)C[C@@H]4C[C@H](O)CC[C@]4(C)[C@H]3C[C@H](O)[C@]12C [Example 10, (24S)-(25R) 3α,7α,12α,24,26-pentahydroxy-5β-cholestane]	80	111.1 ± 9.11	145 ± 7	465 ± 59	99 ± 29	13.8 ± 2.85		
C[C@H](CC[C@@H](O)[C@@H](C)CO)[C@H]1CC[C@H]2[C@@H]3[C@H](O)C[C@@H]4C[C@H](O)CC[C@]4(C)[C@H]3C[C@H](O)[C@]12C [Example 11, (24R)-(25S)-3α,7α,12α,24,26-pentahydroxy-5β-cholestane]	80	103.0 ± 7.56	151 ± 15	433 ± 71	110 ± 33	14.4 ± 2.01		
C[C@H](CO)[C@H](O)CC[C@@H](C)[C@H]1CC[C@H]2[C@@H]3[C@H](O)C[C@@H]4C[C@H](O)CC[C@]4(C)[C@H]3C[C@H](O)[C@]12C [Example 12, (24R)-(25R)-3α,7α,12α,24,26-pentahydroxy-5β-cholestane]	90	121.3 ± 3.21	141 ± 17	475 ± 75	115 ± 39	12.2 ± 1.88		
C[C@H](CC[C@@H](O)C(CO)CO)[C@H]1CC[C@H]2[C@@H]3[C@H](O)C[C@@H]4C[C@H](O)CC[C@]4(C)[C@H]3C[C@H](O)[C@]12C [Illustrative Example 1, (24R)-(+)-3α,7α,12α,24,26,27-hexahydroxy-5β-cholestane]	70	159 ± 10.72	128 ± 10	390 ± 61	90 ± 16	15.1 ± 1.98		
C[C@H](CC[C@@H](O)CCO)[C@H]1CC[C@H]2[C@@H]3[C@H](O)C[C@@H]4C[C@H](O)CC[C@]4(C)[C@H]3C[C@H](O)[C@]12C [Illustrative Example 2, 27-nor-(24R)-(+)-3α,7α,12α,24,26-pentahydroxy-5β-cholestane]	80	95.3 ± 11.12	141 ± 6	444 ± 61	101 ± 42	13.4 ± 2.38	201 ± 4.1	
C[C@H](CC[C@H](O)CCO)[C@H]1CC[C@H]2[C@@H]3[C@H](O)C[C@@H]4C[C@H](O)CC[C@]4(C)[C@H]3C[C@H](O)[C@]12C [Illustrative Example 3, 27-nor-(24S)-(+)-3α,7α,12α,24,26-pentahydroxy-5β-cholestane]	80	97.2 ± 8.51	158 ± 12	428 ± 68	105 ± 40	12.3 ± 3.55	213 ± 5.5	
C[C@H](CCCC(C)(O)CO)[C@H]1CC[C@H]2[C@@H]3[C@H](O)C[C@@H]4C[C@H](O)CC[C@]4(C)[C@H]3C[C@H](O)[C@]12C (stereo partly drawn) [Illustrative Example 4, 5β-cholestane-3α,7α,12α,25,26-pentol]	70	119.0 ± 7.12	116 ± 31	450 ± 59	108 ± 38	14.1 ± 2.11		
CC(C)C(O)CC[C@@H](C)[C@H]1CC[C@H]2[C@@H]3[C@H](O)C[C@@H]4C[C@H](O)CC[C@]4(C)[C@H]3C[C@H](O)[C@]12C (stereo partly drawn) [Illustrative Example 5, 3α,7α,12α,24-tetrahydroxy-5β-cholestane]	80	101.1 ± 7.8	131 ± 21	453 ± 49	110 ± 29	13.8 ± 3.77		
C[C@H](CCCO)[C@H]1CC[C@H]2[C@@H]3[C@H](O)C[C@@H]4C[C@H](O)CC[C@]4(C)[C@H]3C[C@H](O)[C@]12C [Illustrative Example 6, 3α,7α,12α,24-tetrahydroxy-5β-cholan]	80	105.3 ± 6.84	136 ± 10	451 ± 50	107 ± 21	12.4 ± 2.39		

From patent EP0489933A1, “BILE ALCOHOL AND DRUG CONTAINING THE SAME AS ACTIVE INGREDIENT” (TSUMURA CO., LTD., priority 1990, dated 1992)
